# Test results as given in paper PMC11255275, “Structural insights into the triple agonism at GLP-1R, GIPR and GCGR manifested by retatrutide” (Cell Discovery, 2024).
# Read-outs that look alike come from different tables or passages of the source.
# Key:
# GLP-1R = molecular target: T1, GLP-1R (Homo sapiens, UniProt P43220); test: cAMP accumulation, wild-type GLP-1R; format: cell-based; conditions: GLP-1R WT, HEK-293T, TR-FRET, mean ± S.E.M.
# T1 construct: expressed in transfected cells; host or cells: HEK-293T
# T1 sequence (P43220 24-463): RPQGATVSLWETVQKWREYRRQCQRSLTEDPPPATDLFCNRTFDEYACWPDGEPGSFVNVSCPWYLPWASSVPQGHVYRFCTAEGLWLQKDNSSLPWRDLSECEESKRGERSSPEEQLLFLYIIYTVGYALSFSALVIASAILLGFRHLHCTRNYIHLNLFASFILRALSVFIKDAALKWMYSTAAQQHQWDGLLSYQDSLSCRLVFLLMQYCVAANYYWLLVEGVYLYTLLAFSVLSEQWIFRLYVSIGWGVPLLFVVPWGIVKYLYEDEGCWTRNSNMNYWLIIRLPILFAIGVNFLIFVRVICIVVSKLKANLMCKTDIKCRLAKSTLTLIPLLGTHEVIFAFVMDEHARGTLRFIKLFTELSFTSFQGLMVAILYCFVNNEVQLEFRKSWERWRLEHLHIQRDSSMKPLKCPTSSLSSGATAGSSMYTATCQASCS
# Protocol: (§1) HEK-293T cells were maintained at 37°C in 5% CO2 incubator and seeded onto 6-well cell […]
# (§2) culture plates before transfection. After overnight culture, the cells were transiently transfected […]
# (§3) with various constructs using Lipofectamine 2000 transfection reagent (Invitrogen). After 24 h, […]
# (§4) the transfected cells were seeded onto 384-microtiter plates at a density of 3,000 cells per well […]
# (§5) in stimulation buffer (HBSS supplemented with 5 mM HEPES, 0.1% (w/v) casein and 0.5 mM […]
# (§6) 3-isobutyl-1-methylxanthine). Different concentrations of retatrutide in stimulation buffer were […]
# (§7) added, and the stimulation lasted for 40 min. The reaction was stopped by addition of cAMP […]
# (§8) detection buffer containing Eu-cAMP tracer and ULight-anti-cAMP. Plates were then incubated for […]
# (§9) 60 min at RT. Time-resolved FRET signals were measured at 620 nm and 665 nm, respectively, by […]
# (§10) an EnVision multilabel plate reader (PerkinElmer). Data were analyzed in GraphPad PRISM 9.5 […]
# (§11) and all values were normalized to that of the wild-type (WT). […]
# (§12) accumulation was measured in wild-type (WT) and single-point mutated GLP-1R, GIPR or […]
# (§13) of the WT and dose-response curves were analyzed using a three-parameter logistic equation. […]
# (§14) curves were analyzed using a three-parameter logistic equation to obtain pEC50 and Emax values. […]
# (§15) way ANOVA was used to determine statistical difference. N.D., values that could not be determined due […]
# GIPR = molecular target: T2, GIPR (Homo sapiens, UniProt P48546); test: cAMP accumulation, wild-type GIPR; format: cell-based; conditions: HEK-293T, 40 min, TR-FRET, mean ± S.E.M.
# T2 construct: expressed in transfected cells; host or cells: HEK-293T
# T2 sequence (P48546 22-466): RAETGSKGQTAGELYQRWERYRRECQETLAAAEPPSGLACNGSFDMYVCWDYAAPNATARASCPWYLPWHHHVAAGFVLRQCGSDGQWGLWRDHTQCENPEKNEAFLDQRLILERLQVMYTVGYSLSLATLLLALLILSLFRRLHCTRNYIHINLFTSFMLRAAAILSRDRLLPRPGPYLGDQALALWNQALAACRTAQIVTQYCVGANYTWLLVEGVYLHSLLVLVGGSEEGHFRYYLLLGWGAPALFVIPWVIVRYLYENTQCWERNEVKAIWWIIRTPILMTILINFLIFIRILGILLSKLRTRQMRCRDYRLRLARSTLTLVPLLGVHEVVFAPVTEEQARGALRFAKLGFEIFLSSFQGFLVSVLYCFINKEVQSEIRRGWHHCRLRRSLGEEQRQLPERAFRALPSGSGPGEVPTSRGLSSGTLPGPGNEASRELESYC
# Protocol: as §1, §2, §3, §4, §5, §6, §7, §8, §9, §10, §11, §12, §13, §14, §15
# GIPR mutants [1] = molecular target: T3, GIPR mutants (Homo sapiens, UniProt P48546, E288T); test: cAMP accumulation, single-point mutated GIPR; format: cell-based; conditions: GIPR E288(45.52b)T, HEK-293T, 40 min, TR-FRET, mean ± S.E.M., n at least 3
# T3 construct: expressed in transfected cells; host or cells: HEK-293T
# T3 sequence (P48546 22-466 E288T): as the sequence (P48546 22-466) above, with E267T counted along it
# Protocol: as §1, §2, §3, §4, §5, §6, §7, §8, §9, §10
# (§16) and all values were normalized to that of the wild-type (WT).
# (§17) Supplementary Fig. 5 Effects of receptor mutation on retatrutide-induced cAMP […]
# (§18) accumulation. a-c, Signaling profiles of GLP-1R (a), GIPR (b) and GCGR (c) mutants. cAMP […]
# as §12
# (§19) GCGR expressing HEK-293T cells. cAMP levels were normalized to the maximum response […]
# (§20) of the WT and dose-response curves were analyzed using a three-parameter logistic equation.
# (§21) Data were generated and graphed as means ± S.E.M. of at least three independent experiments performed in quadruplicate.
# (§22) (1 picture or pasted object on this page, not shown here)
# (§23) Supplementary Ta b l e S 5 Effects of the ligand-binding pocket residue mutation on retatrutide- […]
# (§24) induced cAMP signaling at GLP-1R, GIPR or GCGR. […]
# (§25) cAMP levels were normalized to the maximum response of the wild-type (WT) and dose-response […]
# (§26) curves were analyzed using a three-parameter logistic equation to obtain pEC50 and Emax values. The […]
# (§27) experiments were carried out independently at least three times. Data shown are means ± S.E.M. One- […]
# as §15
# (§28) to incomplete curve fits. *P< 0.05, **P< 0.01, ***P< 0.001 and ****P<0.0001.
# GIPR mutants [2] = molecular target: T4, GIPR mutants (Homo sapiens, UniProt P48546, E377A); test: cAMP accumulation, single-point mutated GIPR; format: cell-based
# T4 construct: expressed in transfected cells; host or cells: HEK-293T
# T4 sequence (P48546 22-466 E377A): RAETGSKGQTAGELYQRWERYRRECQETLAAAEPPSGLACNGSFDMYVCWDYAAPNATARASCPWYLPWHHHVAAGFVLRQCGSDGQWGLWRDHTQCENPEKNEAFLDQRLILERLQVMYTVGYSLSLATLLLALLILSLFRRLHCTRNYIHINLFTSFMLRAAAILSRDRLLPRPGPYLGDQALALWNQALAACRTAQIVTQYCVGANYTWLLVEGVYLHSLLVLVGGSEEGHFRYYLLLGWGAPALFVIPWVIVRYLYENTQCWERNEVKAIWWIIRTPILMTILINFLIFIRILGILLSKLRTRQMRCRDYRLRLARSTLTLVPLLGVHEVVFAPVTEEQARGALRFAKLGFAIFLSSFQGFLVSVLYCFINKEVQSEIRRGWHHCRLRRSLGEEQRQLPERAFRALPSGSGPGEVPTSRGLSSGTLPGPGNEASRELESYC
# Protocol: as §1, §2, §3, §4, §5, §6, §7, §8, §9, §10, §16, §17, §18, §12, §19, §20, §21, §22, §23, §24, §25, §26, §27, §15, §28
# GIPR mutants [3] = molecular target: T5, GIPR mutants (Homo sapiens, UniProt P48546, F127A); test: cAMP accumulation, single-point mutated GIPR; format: cell-based; conditions: GIPR F127(1.29b)A; HEK-293T, 40 min, TR-FRET; mean ± S.E.M., n at least 3
# T5 construct: expressed in transfected cells; host or cells: HEK-293T
# T5 sequence (P48546 22-466 F127A): as the sequence (P48546 22-466) above, with F106A counted along it
# Protocol: as §1, §2, §3, §4, §5, §6, §7, §8, §9, §10, §16, §17, §18, §12, §19, §20, §21, §22, §23, §24, §25, §26, §27, §15, §28
# GIPR mutants [4] = molecular target: T6, GIPR mutants (Homo sapiens, UniProt P48546, Q285A); test: cAMP accumulation, single-point mutated GIPR; format: cell-based; conditions: GIPR Q285(ECL2)A; HEK-293T, 40 min, TR-FRET; mean ± S.E.M., n at least 3
# T6 construct: expressed in transfected cells; host or cells: HEK-293T
# T6 sequence (P48546 22-466 Q285A): as the sequence (P48546 22-466) above, with Q264A counted along it
# Protocol: as §1, §2, §3, §4, §5, §6, §7, §8, §9, §10, §16, §17, §18, §12, §19, §20, §21, §22, §23, §24, §25, §26, §27, §15, §28
# GIPR mutants [5] = molecular target: T7, GIPR mutants (Homo sapiens, UniProt P48546, W209A); test: cAMP accumulation, single-point mutated GIPR; format: cell-based; conditions: GIPR W209(ECL1)A; HEK-293T, 40 min, TR-FRET; mean ± S.E.M., n at least 3
# T7 construct: expressed in transfected cells; host or cells: HEK-293T
# T7 sequence (P48546 22-466 W209A): as the sequence (P48546 22-466) above, with W188A counted along it
# Protocol: as §1, §2, §3, §4, §5, §6, §7, §8, §9, §10, §16, §17, §18, §12, §19, §20, §21, §22, §23, §24, §25, §26, §27, §15, §28
# GCGR = molecular target: T8, GCGR (Homo sapiens, UniProt P47871); test: cAMP accumulation, wild-type GCGR; format: cell-based; conditions: HEK-293T, 40 min, TR-FRET, mean ± S.E.M.
# T8 construct: expressed in transfected cells; host or cells: HEK-293T
# T8 sequence (P47871 26-477): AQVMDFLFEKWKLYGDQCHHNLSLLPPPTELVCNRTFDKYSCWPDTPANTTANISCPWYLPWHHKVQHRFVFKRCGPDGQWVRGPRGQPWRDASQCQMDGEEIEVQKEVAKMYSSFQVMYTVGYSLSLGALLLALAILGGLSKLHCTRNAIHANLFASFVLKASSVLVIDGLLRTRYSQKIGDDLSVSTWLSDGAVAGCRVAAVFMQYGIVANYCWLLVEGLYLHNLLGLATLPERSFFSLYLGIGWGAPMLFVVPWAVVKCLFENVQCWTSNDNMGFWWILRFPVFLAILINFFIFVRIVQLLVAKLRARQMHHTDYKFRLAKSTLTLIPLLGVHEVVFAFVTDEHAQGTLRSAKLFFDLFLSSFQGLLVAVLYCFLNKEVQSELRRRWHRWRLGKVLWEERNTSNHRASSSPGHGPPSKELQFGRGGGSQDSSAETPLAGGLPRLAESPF
# Protocol: as §1, §2, §3, §4, §5, §6, §7, §8, §9, §10, §11, §12, §13, §14, §15
# [6] = cited from earlier work; for decrease in body weight (up to): single dose, ref Coskun T et al (supplement ref 17)
# From the text: For humans, events were mild, such as 50 1 ascending (PMID: 4 months ...
smiles,measurement,setting,value
CC[C@H](C)[C@H](NC(=O)[C@H](Cc1ccccc1)NC(=O)[C@H](C)NC(=O)C(C)(C)NC(=O)[C@H](CCC(N)=O)NC(=O)[C@H](C)NC(=O)[C@H](CCCCNC(=O)COCCOCCNC(=O)CC[C@H](NC(=O)CCCCCCCCCCCCCCCCCCC(=O)O)C(=O)O)NC(=O)[C@H](CCCCN)NC(=O)[C@H](CC(=O)O)NC(=O)[C@H](CC(C)C)NC(=O)[C@](C)(CC(C)C)NC(=O)[C@@H](NC(=O)[C@H](CO)NC(=O)[C@H](Cc1ccc(O)cc1)NC(=O)[C@H](CC(=O)O)NC(=O)[C@H](CO)NC(=O)[C@@H](NC(=O)[C@H](Cc1ccccc1)NC(=O)[C@@H](NC(=O)CNC(=O)[C@H](CCC(N)=O)NC(=O)C(C)(C)NC(=O)[C@@H](N)Cc1ccc(O)cc1)[C@@H](C)O)[C@@H](C)O)[C@@H](C)CC)C(=O)N[C@@H](CCC(=O)O)C(=O)N[C@@H](Cc1ccc(O)cc1)C(=O)N[C@@H](CC(C)C)C(=O)N[C@@H](CC(C)C)C(=O)N[C@@H](CCC(=O)O)C(=O)NCC(=O)NCC(=O)N1CCC[C@H]1C(=O)N[C@@H](CO)C(=O)N[C@@H](CO)C(=O)NCC(=O)N[C@@H](C)C(=O)N1CCC[C@H]1C(=O)N1CCC[C@H]1C(=O)N1CCC[C@H]1C(=O)N[C@@H](CO)C(N)=O [retatrutide],Emax ± S.E.M. (% WT),"GLP-1R; 40 min, n at least 3",100.00 ± 2.75 % WT
same,EC50,"GLP-1R; 40 min stimulation, at least 3 independent experiments in quadruplicate",8.91 pM
same,EC50,"GIPR; GIPR WT, at least 3 independent experiments in quadruplicate",2.29 pM
same,Emax ± S.E.M. (% WT),GIPR; n at least 3,100.00 ± 2.84 % WT
same,Emax ± S.E.M. (% WT),GIPR mutants [1],100.81 ± 2.93 % WT
same,EC50,GIPR mutants [1]; **P < 0.01,8.91 pM
same,decrease of cAMP signaling potency by mutation,"GIPR mutants [2]; GIPR E7.42bA (E377A), relative to WT",71.6 fold
same,Emax ± S.E.M. (% WT),"GIPR mutants [2]; GIPR E377(7.42b)A, HEK-293T, 40 min, TR-FRET, mean ± S.E.M., n at least 3",99.83 ± 6.38 % WT
same,EC50,"GIPR mutants [2]; GIPR E377(7.42b)A, HEK-293T, 40 min, TR-FRET, mean ± S.E.M., n at least 3, ****P < 0.0001",166 pM
same,EC50,GIPR mutants [3],4.17 pM
same,Emax ± S.E.M. (% WT),GIPR mutants [3],99.67 ± 4.00 % WT
same,EC50,GIPR mutants [4],1.74 pM
same,Emax ± S.E.M. (% WT),GIPR mutants [4],100.34 ± 4.02 % WT
same,EC50,GIPR mutants [5],2 pM
same,Emax ± S.E.M. (% WT),GIPR mutants [5],100.17 ± 3.21 % WT
same,EC50,"GCGR; GCGR WT, at least 3 independent experiments in quadruplicate",7.08 pM
same,Emax ± S.E.M. (% WT),GCGR; n at least 3,100.00 ± 1.46 % WT
same,body weight reduction,"[6]; 3 mg group, ref Urva S et al (supplement ref 18)",–4.71 kg
same,decrease in body weight (up to),[6]; 4.5 mg,–2.93 kg
same,decrease in body weight (up to),[6]; 6 mg,–3.52 kg
same,body weight reduction,"[6]; 3/6 mg group, ref Urva S et al (supplement ref 18)",–7.83 kg
same,fasting and postprandial plasma glucose and HbA1c,"[6]; compared to placebo, ref Urva S et al (supplement ref 18)",clinically decreases
same,severity of most treatment-related adverse events,"[6]; human, in vivo",mild
same,glycemic control,[6]; ref Urva S et al (supplement ref 18),showed glycemic control efficacy
